Here are results for 27 compounds from ChEMBL document CHEMBL1136128, “3-(2-Benzyloxyphenyl)isoxazoles and isoxazolines: synthesis and evaluation as CFTR activators” (Bioorg Med Chem Lett, 2003).

The target in assay [1] is Cystic fibrosis transmembrane conductance regulator (Rattus norvegicus) (UniProt P34158). Put plainly: Percent activity against CFTR (cystic fibrosis transmembrane conductance regulator) in rat relative to UCCF-152(50 uM).
Assay [2] has the same target. Nature of the assay: Percent activity against CFTR (cystic fibrosis transmembrane conductance regulator) in rat relative to genistein(50 uM).

SMILES strings stand for the structures.

Cystic fibrosis transmembrane conductance regulator (Rattus norvegicus), sequence (P34158 whole entry): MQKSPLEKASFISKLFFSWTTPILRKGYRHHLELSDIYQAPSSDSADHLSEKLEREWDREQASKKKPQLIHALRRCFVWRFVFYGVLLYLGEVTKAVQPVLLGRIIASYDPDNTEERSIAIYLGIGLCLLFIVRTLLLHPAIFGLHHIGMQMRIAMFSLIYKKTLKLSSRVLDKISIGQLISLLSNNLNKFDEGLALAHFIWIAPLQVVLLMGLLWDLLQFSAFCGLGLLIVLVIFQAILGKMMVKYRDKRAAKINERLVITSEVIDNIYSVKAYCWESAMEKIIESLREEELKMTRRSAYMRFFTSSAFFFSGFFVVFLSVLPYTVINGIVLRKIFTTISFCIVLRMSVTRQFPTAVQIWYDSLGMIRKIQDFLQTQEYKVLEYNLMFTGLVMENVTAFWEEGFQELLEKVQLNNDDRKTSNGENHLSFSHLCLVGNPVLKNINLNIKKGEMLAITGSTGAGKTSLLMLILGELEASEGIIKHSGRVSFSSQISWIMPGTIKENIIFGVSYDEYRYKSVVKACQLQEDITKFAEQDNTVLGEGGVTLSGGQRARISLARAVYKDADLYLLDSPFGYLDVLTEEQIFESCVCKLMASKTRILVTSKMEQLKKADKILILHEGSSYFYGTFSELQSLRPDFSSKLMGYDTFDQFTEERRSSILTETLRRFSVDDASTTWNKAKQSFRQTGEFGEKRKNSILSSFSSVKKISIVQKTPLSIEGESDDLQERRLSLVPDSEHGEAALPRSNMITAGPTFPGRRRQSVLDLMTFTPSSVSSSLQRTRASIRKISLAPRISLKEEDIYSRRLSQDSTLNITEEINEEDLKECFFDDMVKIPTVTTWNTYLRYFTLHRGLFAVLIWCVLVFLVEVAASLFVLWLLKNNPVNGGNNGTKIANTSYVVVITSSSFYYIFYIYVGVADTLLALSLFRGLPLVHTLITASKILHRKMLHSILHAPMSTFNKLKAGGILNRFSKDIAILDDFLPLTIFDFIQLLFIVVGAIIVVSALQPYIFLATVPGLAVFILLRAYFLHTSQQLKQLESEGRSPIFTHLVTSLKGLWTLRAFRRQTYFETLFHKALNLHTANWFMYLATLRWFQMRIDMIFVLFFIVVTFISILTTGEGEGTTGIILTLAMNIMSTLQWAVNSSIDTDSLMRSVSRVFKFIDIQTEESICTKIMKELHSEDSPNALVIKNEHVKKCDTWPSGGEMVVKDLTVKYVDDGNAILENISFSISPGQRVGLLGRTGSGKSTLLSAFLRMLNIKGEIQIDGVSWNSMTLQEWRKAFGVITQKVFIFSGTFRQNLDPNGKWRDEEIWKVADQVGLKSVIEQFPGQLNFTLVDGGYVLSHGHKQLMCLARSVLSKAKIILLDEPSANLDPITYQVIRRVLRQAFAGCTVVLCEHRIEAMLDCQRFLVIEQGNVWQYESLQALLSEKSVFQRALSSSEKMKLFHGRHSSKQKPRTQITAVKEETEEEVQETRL

For `CCCCc1cc(-c2ccccc2OCc2ccc(OC)cc2)no1`, in assay [1], the Activity is 8%.

In assay [1], `COc1ccccc1-c1cc(CO)on1` gave an Activity of 22%.

Take `COC(=O)c1cc(-c2ccccc2OCc2ccc(Br)cc2)no1`: the Activity in assay [1] amounted to 32%.

In assay [1], `COc1ccc(COc2ccc(Br)cc2-c2cc(CCl)on2)cc1` returned an Activity of 9%.

`COc1ccc(COc2ccccc2-c2cc(CCO)on2)cc1` showed an Activity in assay [1] of 46%.

The compound `COc1cccc(COc2ccccc2-c2cc(CO)on2)c1` displayed an Activity in assay [1] of 45%.

With `COc1ccc(COc2ccc(-c3cc(CCl)on3)cc2)cc1`, the Activity in assay [1] was 3%.

`COc1ccc(COc2ccccc2-c2cc(CO)on2)cc1` yielded an Activity in assay [1] of 45%.

`COc1cccc(COc2ccccc2-c2cc(CCO)on2)c1` returned an Activity in assay [1] of 31%.

In assay [1], `COC(=O)C1CC(c2ccccc2OCc2ccc(OC)cc2)=NO1` (configuration not stated) yielded an Activity of 64%.

Consider `COC(=O)c1onc(-c2ccccc2OCc2ccc(Br)cc2)c1C(=O)OC`, for which the Activity in assay [1] was 21%.

`COc1ccc(COc2ccccc2C2=NOC(CCl)C2)cc1` (configuration not stated): in assay [1], the Activity is 61%.

In assay [1], `COC(=O)C1CC(c2ccccc2OCc2cccc(OC)c2)=NO1` (configuration not stated) returned an Activity of 29%.

`COc1cccc(COc2ccccc2C2=NOC(CCl)C2)c1` (configuration not stated) had an Activity in assay [1] of 58%.

As to `COC(=O)C1CC(c2ccccc2OCc2ccc(Br)cc2)=NO1` (configuration not stated), the Activity in assay [1] was 48%.

With `ClCc1cc(-c2ccccc2OCc2ccc(Br)cc2)no1`, the Activity in assay [1] came out at 25%.

Take `COc1ccc(COc2cccc(-c3cc(CCl)on3)c2)cc1`: the Activity in assay [1] was 2%.

Regarding `COc1ccccc1-c1cc(CCl)on1`, in assay [1], the Activity stood at 8%.

`COc1ccc(COc2ccc(Br)cc2-c2cc(CO)on2)cc1`: in assay [1], the Activity stood at 30%.

In assay [1], `OCCc1cc(-c2ccccc2OCc2ccc(Br)cc2)no1` registered an Activity of 106%.

In assay [2], `ClCc1cc(-c2ccccc2OCc2ccccc2)no1` returned an Activity of 55%.

Regarding `COc1ccc(COc2ccccc2-c2cc(CCl)on2)cc1`, the Activity in assay [1] stood at 72%.

With `COCc1cc(-c2ccccc2OCc2ccc(Br)cc2)no1`, the Activity in assay [1] was 10%.

On to `OCc1cc(-c2ccccc2OCc2ccc(Br)cc2)no1`, for which the Activity in assay [1] was found to be 39%.

`COC(=O)C1CC(c2cc(Br)ccc2OCc2ccc(OC)cc2)=NO1` (configuration not stated): the Activity in assay [1] was 41%.

Turning to `COc1ccc(COc2ccccc2C2=NOC(CO)C2)cc1` (configuration not stated), in assay [1], the Activity was 63%.

`COc1cccc(COc2ccccc2C2=NOC(CO)C2)c1` (configuration not stated) returned an Activity in assay [1] of 29%.
